Data published in patent US20250231185A1, “Coronavirus T Cell Epitopes, Megapools and Uses Thereof” (La Jolla Institute for Immunology, priority 2021, published 2025).

test system: CD4+ T cells; experiment: Meta-analysis of published SARS-CoV-2 CD4 T cell epitope data curated in the IEDB (25 studies); assay type: cell-based, human; conditions: CD4R (D) Megapool, non-spike antigens; dominant = recognized in 3 or more donors/studies

Substance | Dominant
2297 (RGHLRIAGHHLGRCD) [compound 2297] | Yes (more dominant epitopes are defined by being recognized by 3 or more donors/different studies)
2330 (PSGTWLTYTGAIKLD) [compound 2330] | Yes (more dominant epitopes are defined by being recognized by 3 or more donors/different studies)
2322 (KKPRQKRTATKAYNV) [compound 2322] | Yes (more dominant epitopes are defined by being recognized by 3 or more donors/different studies)
2306 (LGASQRVAGDSGFAA) [compound 2306] | Yes (more dominant epitopes are defined by being recognized by 3 or more donors/different studies)
2320 (LLLLDRLNQLESKMS) [compound 2320] | Yes (more dominant epitopes are defined by being recognized by 3 or more donors/different studies)
2287 (FYVYSRVKNLNSSRV) [compound 2287] | Yes (more dominant epitopes are defined by being recognized by 3 or more donors/different studies)
2310 (DDQIGYYRRATRRIR) [compound 2310] | Yes (more dominant epitopes are defined by being recognized by 3 or more donors/different studies)
2296 (LRGHLRIAGHHLGRC) [compound 2296] | Yes (more dominant epitopes are defined by being recognized by 3 or more donors/different studies)
2309 (SWFTALTQHGKEDLK) [compound 2309] | Yes (more dominant epitopes are defined by being recognized by 3 or more donors/different studies)
2328 (ASAFFGMSRIGMEVT) [compound 2328] | Yes (more dominant epitopes are defined by being recognized by 3 or more donors/different studies)
2323 (KRTATKAYNVTQAFG) [compound 2323] | Yes (more dominant epitopes are defined by being recognized by 3 or more donors/different studies)
2298 (IAGHHLGRCDIKDLP) [compound 2298] | Yes (more dominant epitopes are defined by being recognized by 3 or more donors/different studies)

same assay, conditions: CD4RE megapool peptides (non-spike SARS-CoV-2 CD4 epitopes); dominant = recognized by 3 or more donors/different studies

Substance | Dominant
2641 (YYRRATRRIRGGDGK) [compound 2641] | Yes (more dominant epitopes are defined by being recognized by 3 or more donors/different studies)
2626 (RGHLRIAGHHLGRCD) [compound 2626] | Yes (more dominant epitopes are defined by being recognized by 3 or more donors/different studies)
2650 (AAEASKKPRQKRTAT) [compound 2650] | Yes (more dominant epitopes are defined by being recognized by 3 or more donors/different studies)
2629 (IKDLPKEITVATSRT) [compound 2629] | Yes (more dominant epitopes are defined by being recognized by 3 or more donors/different studies)
2627 (IAGHHLGRCDIKDLP) [compound 2627] | Yes (more dominant epitopes are defined by being recognized by 3 or more donors/different studies)
2656 (WPQIAQFAPSASAFF) [compound 2656] | Yes (more dominant epitopes are defined by being recognized by 3 or more donors/different studies)
2635 (LGASQRVAGDSGFAA) [compound 2635] | Yes (more dominant epitopes are defined by being recognized by 3 or more donors/different studies)
2648 (DAALALLLLDRLNQL) [compound 2648] | Yes (more dominant epitopes are defined by being recognized by 3 or more donors/different studies)
2660 (GTWLTYTGAIKLDDK) [compound 2660] | Yes (more dominant epitopes are defined by being recognized by 3 or more donors/different studies)
2618 (VLAAVYRINWITGGI) [compound 2618] | Yes (more dominant epitopes are defined by being recognized by 3 or more donors/different studies)
2661 (FKDQVILLNKHIDAY) [compound 2661] | Yes (more dominant epitopes are defined by being recognized by 3 or more donors/different studies)
2631 (TSRTLSYYKLGASQRVA) [compound 2631] | Yes (more dominant epitopes are defined by being recognized by 3 or more donors/different studies)
2654 (LIRQGTDYKHWPQIA) [compound 2654] | Yes (more dominant epitopes are defined by being recognized by 3 or more donors/different studies)
